Data reported in US20070167631A1, “Novel herbicides” (priority 2003, published 2007).

Key:
Assay in all cases: Post-emergence herbicidal action (Example B2)
Assay type in all cases: in vivo
Conditions in all cases: 250 g/ha, after about 18 days, rating scale 10=total damage, 0=no action
[1] = test system: Echinochloa
Excerpt: (§1) Monocotyledonous and dicotyledonous test plants are cultivated in a greenhouse in standard soil in plastic pots and, at the 4- to 6-leaf stage, are sprayed with an aqueous suspension of the test compounds of formula I prepared from a 25% wettable powder (Example F3, b) according to WO 97/34485) or with an emulsion of the test compounds of formula I prepared from a 25% emulsifiable concentrate (Example F1, c) according to WO 97/34485), corresponding to concentrations of 125 and 250 g of active ingredient per hectare (500 litres of water per ha). The test plants are then grown on in the greenhouse under optimum conditions. After a test duration of about 18 days, the test is evaluated in accordance with a scale of eleven ratings (10=total damage, 0=no action). Ratings of from 10 to 7 (especially from 10 to 8) indicate very good to good herbicidal action.

[2] = test system: Xanthium
Excerpt: as §1

[3] = test system: Chenopodium
Excerpt: as §1

[4] = test system: Euphorbia
Excerpt: as §1

[5] = test system: Panicum
Excerpt: as §1

[6] = test system: Amaranthus
Excerpt: as §1

[7] = test system: Stellaria
Excerpt: as §1

| SMILES | Post-emergence action: Echinochloa [1] | Post-emergence action: Xanthium [2] | Post-emergence action: Chenopodium [3] | Post-emergence action: Euphorbia [4] | Post-emergence action: Panicum [5] | Post-emergence action: Amaranthus [6] | Post-emergence action: Stellaria [7] |
| --- | --- | --- | --- | --- | --- | --- | --- |
| COCCOc1nc(C(=O)C2=C(O)CCCC2=O)ccc1C(F)(F)F [Compound 1.003] | 8 | 9 | 10 | 6 | 8 | 9 | 10 |
| O=C1CCCC(O)=C1C(=O)c1ccc(C(F)(F)F)c(OC2CCOC2)n1 (stereo not shown) [Compound 1.021] | 6 | 9 | 8 | 7 | 6 | 9 | 7 |
| O=C1CCCC(O)=C1C(=O)c1ccc(C(F)(F)F)c(-n2ccc(C(F)(F)F)n2)n1 [Compound 1.081] | 9 | 9 | 9 | 9 | 10 | 10 | 6 |
| CCC(=O)N(C)c1nc(C(=O)C2=C(O)CCCC2=O)ccc1C(F)(F)F [Compound 1.090] | 7 | 8 | 9 |  | 8 | 8 | 6 |
| CC1=NOC(c2nc(C(=O)C3=C(O)CCCC3=O)ccc2C(F)(F)F)C1 (stereo not shown) [Compound 1.203] | 8 | 8 | 9 | 7 | 9 | 8 | 7 |
| COCCOc1nc(C(=O)C2=C(O)C(C)(C)C(=O)C(C)(C)C2=O)ccc1C(F)(F)F [Compound 2.003] | 9 | 8 | 8 | 9 | 9 | 8 | 9 |
| CC1(C)C(=O)C(C(=O)c2ccc(C(F)(F)F)c(-n3ccc(C(F)(F)F)n3)n2)=C(O)C(C)(C)C1=O [Compound 2.080] | 9 | 9 | 6 | 9 | 9 | 9 | 7 |
| COc1nc(C(=O)C2=C(O)C(C)(C)C(=O)C(C)(C)C2=O)ccc1C(F)(F)F [Compound 2.094] | 8 | 7 | 9 | 8 | 8 | 3 | 9 |
| CCOc1nc(C(=O)C2=C(O)C(C)(C)C(=O)C(C)(C)C2=O)ccc1C(F)(F)F [Compound 2.095] | 9 | 9 | 8 | 9 | 9 | 9 | 5 |
| C=C(OCC)c1nc(C(=O)C2=C(O)C(C)(C)C(=O)C(C)(C)C2=O)ccc1C(F)(F)F [Compound 2.188] | 7 | 8 | 6 | 7 | 9 | 5 | 10 |
| CC1=NOC(c2nc(C(=O)C3=C(O)C(C)(C)C(=O)C(C)(C)C3=O)ccc2C(F)(F)F)C1 (stereo not shown) [Compound 2.201] | 8 | 8 | 8 | 6 | 9 | 9 | 6 |
